Source: US20200247815A1, “PYRAZOLYL-CONTAINING TRICYCLIC DERIVATIVE, PREPARATION METHOD THEREFOR AND USE THEREOF” (Jiangsu Hansoh Pharmaceutical Group Co., Ltd., priority 2017, published 2020)

What was measured:
hERG potassium channel = target: T1, hERG potassium channel (Homo sapiens, UniProt Q12809); assay: hERG potassium channel inhibition activity test (Qpatch, CHO-hERG cells); format: cell-based
T1 construct: expressed in transfected cells; host or cells: CHO-hERG cells
Protocol: 4.1.1 CHO-hERG cells were cultured in a 175 cm2 culture flask. After the cell density reached 60˜80%, the culture solution was removed. The cells were washed with 7 mL of PBS once, and dissociated with 3 mL of Detachin.
4.1.2 After completion of dissociation, the cells were neutralized with 7 mL of culture solution. The solution was centrifuged, and the supernate was removed. The cells were resuspended in 5 mL of culture solution. The cell indensity is ensured as […].
Single cell sealing impedance and formation of whole-cell mode were automatically performed by Qpatch instrument. After obtaining the whole-cell recording mode, the cell was clamped at −80 mV. The cell first underwent pre-voltage of −50 mV for 50 msec, then underwent depolarization stimulation at +40 mV for 5 sec, and then underwent repolarization at −50 mV for 5 sec. and then the voltage returned to −80 mV. The cell underwent the stimulation at the voltage every 15 sec, and the data were recorded for 2 min, then extracellular fluid was administrated, and then the data were recorded for 5 min. Then, the administration process begun. The concentration of the test compound started from the lowest concentration, each test concentration was administrated for 2.5 min. At least three cells were tested for each concentration.
4.4.1 20 mM mother liquor of the compound was diluted with extracellular fluid, 5 uL of 20 mM mother liquor of the compound was added with 2495 uL of extracellular fluid to obtain a concentration of 40 uM (500-fold dilution). The solution was subjected to a 3-fold serial dilution with extracellular fluid containing 0.2% DMSO to obtain a required final concentration.
This concentration of DMSO had no effect on hERG potassium channel.
The experimental data was analyzed by XLFit software.

ERK-1 kinase = target: T2, ERK-1 kinase (Homo sapiens, UniProt P27361); assay: Inhibition of ERK-1 kinase activity (LANCE Ultra TR-FRET); format: biochemical; details: ERK1 enzyme 0.4 nM, ATP 38.15 μM
T2 construct: purchased Invitrogen PV3311
Protocol: (§1) The object of this test example is to determine the inhibition effect of the compound on ERK-1 kinase activity. In vitro ERK-1 kinase analysis was carried out by using LANCE Ultra (Perkin Elmer) method. The reaction (reaction system 10 μL) was conducted by adding 2.5 μL of test compound/DMSO (final 4%, V/V, diluted to 10 concentrations (400 nM to 0.02 nM) using a 1:3 dilution scheme), 5 μL of a mixed solution of ERK1 enzyme (Invitrogen, # PV3311, final concentration: 0.4 nM) and substrate Ulight-MBP peptide (Perkin Elmer, # TRF0109-M, final concentration: 0.5 μM) formulated with a kinase buffer (50 mM Hepes pH 7.4, 10 mM MgCl2, 1 mM EGTA, 0.01% Triton X-100, 2 mM DTT) and 2.5 μL of ATP solution (Invitrogen, # PV3227, final concentration: 38.15 μM) formulated with the same buffer successively to a 384-well plate (Perkin Elmer OPTIPLATE™) and mixing well. The reaction mixture was incubated at room temperature for 60 minutes. The reaction was stopped by adding 1× LANCE Detection buffer (PerkinElmer # CR97-100) diluted with ultra-pure water, mM EDTA (Invitrogen #15575038) and 1 nM Eu-anti-p-MBP (PerkinElmer # TRF0201-M) antibody in 10 μL/well. The plate was incubated at room temperature for 60 minutes. Excitation reading was performed on Synergy H1 Hybird Reader, H1MFD (Biotek) with an excitation wavelength of 320 nm. TR-FRET rate was calculated by dividing the acceptor emission signal (signal value at 665 nM) by the Eu donor emission signal (signal value at 615 nM). The inhibition TR-FRET rate of the well treated by the compound was calculated relative to the Max signal (DMSO control) and Min signal (no enzyme added) control wells on the plate {% inhibition rate=100−[(test compound−Min average)]/(Max average−Min average)×100}. The 10 concentrations of the compound after 4-fold dilution of the reaction system were 100 nM to 0.005 nM. Abs_IC50 value was calculated by using GraphPad prism fits percentage inhibition rate and ten-point concentration data in a 4-parameter non-linear logic formula.

ERK-2 kinase = target: T3, ERK-2 kinase (Homo sapiens, UniProt P28482); assay: Inhibition of ERK-2 kinase activity (LANCE Ultra TR-FRET); format: biochemical; details: ERK-2 enzyme 0.08 nM, ATP 38.15 μM
T3 construct: purchased Invitrogen PV3313
Protocol: as §1, with “ERK-2” for “ERK-1”, “ERK-2” for “ERK1”, “PV3313,” for “PV3311,”, “0.08” for “0.4”, “EGTA” for “EGTA,”, “IX” for “1×”

[1] = test system: pancreatic cancer tumor cell Mia Paca 2; assay: Inhibition of tumor cell proliferation (CellTiter-Glo); format: cell-based; details: Homo sapiens, Miapaca-2 cell, 3-7 days
Protocol: The object of this test example is to determine the inhibition effect of the present compound on tumor cell proliferation activity. The inhibition activity of the compound on tumor cell proliferation was determined by CellTiter-Glo method, and the half inhibitory concentration IC50 of the compound for inhibiting cell proliferation activity was obtained, 50-100 μL of tumor cell suspension was inoculated in a 96-well cell culture plate with a density of 1˜5*10^4 cells/ml. The plate was incubated in an incubator for 16˜24 hours (37° C., 5% CO2). Solutions of test compounds at different concentrations obtained by gradient dilution were added to the cells in the plate. The plate was incubated in an incubator for 3-7 days (37° C., 5% CO2), 50˜100 μL of CellTiter-Glo reagent was added to each well. The plate was shaked for 10 minutes, and left to stand at room temperature for 10 minutes. The value of the chemiluminescence signal was determined by a microplate reader. The inhibition rate was calculated from the value of the chemiluminescence signal. IC50 of the compound was obtained by curve fitting based on the inhibition rate at different concentrations.
The inhibition effect of the present compound on pancreatic cancer tumor cell Mia Paca 2 proliferation activity was determined by the test, and the obtained IC50 value is shown in Table 2.

T2 sequence (P27361 whole entry): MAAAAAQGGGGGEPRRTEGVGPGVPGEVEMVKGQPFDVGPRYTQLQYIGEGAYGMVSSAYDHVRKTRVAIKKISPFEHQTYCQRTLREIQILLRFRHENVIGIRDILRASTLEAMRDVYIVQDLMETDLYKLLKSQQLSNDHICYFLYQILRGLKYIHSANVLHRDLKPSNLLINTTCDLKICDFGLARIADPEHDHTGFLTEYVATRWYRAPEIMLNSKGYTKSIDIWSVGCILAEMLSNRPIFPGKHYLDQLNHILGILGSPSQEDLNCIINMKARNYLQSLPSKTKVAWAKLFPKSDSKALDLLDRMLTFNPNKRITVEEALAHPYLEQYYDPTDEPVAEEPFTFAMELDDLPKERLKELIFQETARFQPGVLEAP
T3 sequence (P28482 whole entry): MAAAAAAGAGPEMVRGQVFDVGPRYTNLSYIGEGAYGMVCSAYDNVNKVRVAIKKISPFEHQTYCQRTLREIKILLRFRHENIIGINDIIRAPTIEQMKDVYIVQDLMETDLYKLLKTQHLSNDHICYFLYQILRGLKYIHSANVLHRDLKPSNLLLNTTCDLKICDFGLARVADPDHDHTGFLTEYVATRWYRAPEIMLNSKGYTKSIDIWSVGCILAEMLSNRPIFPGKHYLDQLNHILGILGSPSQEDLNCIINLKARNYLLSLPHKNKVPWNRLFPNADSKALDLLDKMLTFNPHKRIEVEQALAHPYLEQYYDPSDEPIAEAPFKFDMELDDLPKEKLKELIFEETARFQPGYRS
T1 sequence (Q12809 whole entry): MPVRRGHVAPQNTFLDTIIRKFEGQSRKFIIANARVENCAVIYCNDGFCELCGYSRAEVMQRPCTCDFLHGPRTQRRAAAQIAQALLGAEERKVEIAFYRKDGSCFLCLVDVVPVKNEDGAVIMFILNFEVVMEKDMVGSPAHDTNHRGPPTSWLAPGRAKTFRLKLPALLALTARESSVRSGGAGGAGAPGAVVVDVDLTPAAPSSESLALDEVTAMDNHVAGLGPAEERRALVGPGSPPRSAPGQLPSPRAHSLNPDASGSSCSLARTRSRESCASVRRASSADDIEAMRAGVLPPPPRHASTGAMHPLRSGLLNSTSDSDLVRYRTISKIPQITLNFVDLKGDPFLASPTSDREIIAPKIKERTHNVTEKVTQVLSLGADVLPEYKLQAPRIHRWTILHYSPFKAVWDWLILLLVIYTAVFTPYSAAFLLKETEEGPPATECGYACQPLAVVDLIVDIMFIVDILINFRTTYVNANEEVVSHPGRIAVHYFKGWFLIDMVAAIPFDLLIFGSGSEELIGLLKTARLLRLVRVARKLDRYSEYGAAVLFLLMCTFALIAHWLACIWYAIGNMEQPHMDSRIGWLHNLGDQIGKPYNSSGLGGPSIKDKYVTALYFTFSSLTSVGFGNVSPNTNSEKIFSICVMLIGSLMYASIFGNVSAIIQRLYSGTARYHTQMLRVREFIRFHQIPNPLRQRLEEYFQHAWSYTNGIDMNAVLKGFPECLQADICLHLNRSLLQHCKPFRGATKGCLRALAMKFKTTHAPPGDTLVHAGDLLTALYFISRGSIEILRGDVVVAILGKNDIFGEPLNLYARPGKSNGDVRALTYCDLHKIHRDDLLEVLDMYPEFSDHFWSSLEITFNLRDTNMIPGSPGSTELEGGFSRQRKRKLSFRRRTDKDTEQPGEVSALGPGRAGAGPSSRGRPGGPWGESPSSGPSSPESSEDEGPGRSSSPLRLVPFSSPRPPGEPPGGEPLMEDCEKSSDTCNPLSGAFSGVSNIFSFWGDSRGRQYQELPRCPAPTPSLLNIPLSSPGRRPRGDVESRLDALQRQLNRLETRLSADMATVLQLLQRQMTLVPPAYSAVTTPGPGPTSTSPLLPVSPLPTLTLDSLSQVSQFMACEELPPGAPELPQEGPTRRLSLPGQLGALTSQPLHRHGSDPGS

Row | Structure (SMILES) | IC50 (ERK-1 kinase) [nM] | IC50 (ERK-2 kinase) [nM] | IC50 [1] [nM] | Inhibition effect on cardiac hERG potassium channel (hERG potassium channel) | IC50 (hERG potassium channel; CHO-hERG cells, highest test concentration 40 uM, read-out: hERG (inhibition effect on hERG current)) [nM]
1 | O=C(Cc1ccccc1)c1nc2cc3c(-c4ccncc4)n[nH]c3cc2[nH]1 [Example 105, 2-phenyl-1-(3-(pyridin-4-yl)-1,7-dihydroimidazo[4,5-f]indazol-6-yl)ethan-1-one] | – | – | – | no inhibition effect | > 40000
2 | COc1cccc([C@@H](C)NC(=O)c2nc3cc4c(-c5ccncc5)n[nH]c4cc3[nH]2)c1 [Example 19, (R)—N-(1-(3-methoxyphenyl)ethyl)-3-(pyridin-4-yl)-1,7-dihydroimidazo[4,5-f]indazole-6-carboxamide] | 0.35 | 0.2 | 159 | – | –
3 | Cc1cc(-c2n[nH]c3cc4[nH]c(C(=O)N[C@H](C)c5ccccc5)nc4cc23)ccn1 [Example 36, (R)-3-(2-methylpyridin-4-yl)-N-(1-phenylethyl)-1,7-dihydroimidazo[4,5-f]indazole-6-carboxamide] | 1.08 | 1.23 | 244 | – | –
4 | C[C@@H](NC(=O)c1nc2cc3c(-c4ccncc4)n[nH]c3cc2[nH]1)c1cccc(F)c1 [Example 45, (R)—N-(1-(3-fluorophenyl)ethyl)-3-(pyridin-4-yl)-1,7-dihydroimidazo[4,5-f]indazole-6-carboxamide] | 0.54 | 0.5 | 110 | – | –

More lines, in order of falling IC50 (ERK-1 kinase), values ahead:

Row | IC50 (ERK-1 kinase) [nM] | IC50 (ERK-2 kinase) [nM] | IC50 [1] [nM] | Structure (SMILES) | Inhibition effect on cardiac hERG potassium channel (hERG potassium channel) | IC50 (hERG potassium channel; CHO-hERG cells, highest test concentration 40 uM, read-out: hERG (inhibition effect on hERG current)) [nM]
5 | 0.29 | 0.17 | 55.5 | CNC[C@@H](NC(=O)c1nc2cc3c(-c4ccncc4)n[nH]c3cc2[nH]1)c1ccccc1 [Example 50, (S)—N-(2-(methylamino)-1-phenylethyl)-3-(pyridin-4-yl)-1,7-dihydroimidazo[4,5-f]indazole-6-carboxamide] | – | –
6 | 0.19 | 0.12 | 61.6 | Cc1cccc([C@@H](CO)NC(=O)c2nc3cc4c(-c5ccncc5)n[nH]c4cc3[nH]2)c1 [Example 30, (S)—N-(2-hydroxy-1-(m-tolyl)ethyl)-(pyridin-4-yl)-1,7-dihydroimidazo[4,5-f]indazole-6-carboxamide] | – | –
